Source: US20060199856A1, “Novel compounds as anti-inflammatory, immunomodulatory and anti-proliferatory agents” (4 SC AG, priority 2001, published 2006)
Where two headings read alike, the source gives them in different places.

Assays:
recombinant murine DHODH = target: T1, recombinant murine DHODH (Mus musculus, UniProt O35435); assay: Inhibition assay of DHODH activity (murine enzyme); format: biochemical
T1 construct: provided by Prof; M. Löffler, Marburg, Germany (gift, not purchased)
Method: (§1) The standard assay mixture contained 50 μM decyclo ubichinone, 100 μM dihydroorotate, 60 μM 2,6-dichloroindophenol, as well as 20 mU DHODH. The volume activity of the recombinant enzyme used was 30 U/ml. Measurements were conducted in 50 mM TrisHCl (150 mM KCl, 0,1% Triton X-100, pH. 8,0) at 30° C. in a final volume of 1 ml. The components were mixed, and the reaction was started by adding dihydroorotate. The course of reaction was followed by spectrophotometrically measuring the decrease in absorption at 600 nm for 2 min.
(§2) Inhibitory studies were conducted in a standard assay with additional variable amounts of inhibitor.
(§3) These investigations were carried out with recombinant human as well as with recombinant murine DHODH provided by Prof. M. Löffler, Marburg, Germany [M. Löffler, Chem. Biol. Interact.

recombinant human DHODH = target: T2, recombinant human DHODH (Homo sapiens, UniProt Q02127); assay: Inhibition assay of DHODH activity (human enzyme); format: biochemical
T2 construct: provided by Prof; M. Löffler, Marburg, Germany (gift, not purchased)
Method: as §1, §2, §3

[1] = tested on: human lymphocyte cell proliferation; assay: Proliferation Assay of Human T-Cells; format: cell-based; conditions: 100 μM, activated human MNC, 48 hours
Method: Buffy coats of healthy donors were obtained from the local Red Cross; from these human mononuclear cells (MNC) were isolated using Accuspin™ System-Histopaque-1077 (Sigma) according to the protocol recommended by the manufacturer. Cells were seeded at densities of 5×10^4 or 1×10^5 cells per well in 96 well flat bottom plates in RPMI 1640 supplemented with 10% fetal calf serum, 2 mM L-glutamine and penicillin/streptomycin. Cells were activated with 1 μg/ml phytohaemagglutinin (PHA, Sigma) or 20 nM PMA (phorbol-12-myristate-13-acetate)/10 μM ionomycin (Calbiochem) and incubated with the test compounds in a final volume of 100 μl for 48 hours. Proliferation was measured using the CellTiter 96® Aqueous One Solution Cell Proliferation Assay (Promega) according to the lymphocyte assay protocol supplied by the manufacturer.

DHODH = DHODH (Rattus norvegicus, UniProt Q63707); assay: Inhibition assay of DHODH activity (rat enzyme, head printed 'rate'); format: biochemical; conditions: class symbols (in nM); read-out: rate IC50-Value
Method: as §1, §2

[2] = recombinant human DHODH, numeric values, read-out: human IC50-Value
[3] = recombinant human DHODH, class symbols (in nM), read-out: human IC50-Value

T2 sequence (Q02127 whole entry): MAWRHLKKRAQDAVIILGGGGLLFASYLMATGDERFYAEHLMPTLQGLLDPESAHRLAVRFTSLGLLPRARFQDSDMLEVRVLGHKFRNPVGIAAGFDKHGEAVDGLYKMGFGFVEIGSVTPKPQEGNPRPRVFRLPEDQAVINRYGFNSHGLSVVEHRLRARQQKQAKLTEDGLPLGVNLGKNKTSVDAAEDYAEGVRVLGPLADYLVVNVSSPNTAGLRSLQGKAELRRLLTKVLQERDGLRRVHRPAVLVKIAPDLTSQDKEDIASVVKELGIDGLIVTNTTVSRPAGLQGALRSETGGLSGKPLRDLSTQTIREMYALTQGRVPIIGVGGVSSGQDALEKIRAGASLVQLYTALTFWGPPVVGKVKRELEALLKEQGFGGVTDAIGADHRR
DHODH, sequence (Q63707 whole entry): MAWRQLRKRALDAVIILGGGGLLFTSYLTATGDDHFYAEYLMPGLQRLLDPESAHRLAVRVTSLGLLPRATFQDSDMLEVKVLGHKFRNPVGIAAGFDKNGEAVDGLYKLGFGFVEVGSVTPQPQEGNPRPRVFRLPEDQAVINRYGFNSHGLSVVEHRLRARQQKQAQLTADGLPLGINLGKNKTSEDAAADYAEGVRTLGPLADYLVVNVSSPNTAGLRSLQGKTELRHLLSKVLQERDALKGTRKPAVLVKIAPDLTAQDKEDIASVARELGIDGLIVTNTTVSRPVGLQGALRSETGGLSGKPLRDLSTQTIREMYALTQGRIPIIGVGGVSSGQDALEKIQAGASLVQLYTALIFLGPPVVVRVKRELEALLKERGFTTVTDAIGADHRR
T1 sequence (O35435 whole entry): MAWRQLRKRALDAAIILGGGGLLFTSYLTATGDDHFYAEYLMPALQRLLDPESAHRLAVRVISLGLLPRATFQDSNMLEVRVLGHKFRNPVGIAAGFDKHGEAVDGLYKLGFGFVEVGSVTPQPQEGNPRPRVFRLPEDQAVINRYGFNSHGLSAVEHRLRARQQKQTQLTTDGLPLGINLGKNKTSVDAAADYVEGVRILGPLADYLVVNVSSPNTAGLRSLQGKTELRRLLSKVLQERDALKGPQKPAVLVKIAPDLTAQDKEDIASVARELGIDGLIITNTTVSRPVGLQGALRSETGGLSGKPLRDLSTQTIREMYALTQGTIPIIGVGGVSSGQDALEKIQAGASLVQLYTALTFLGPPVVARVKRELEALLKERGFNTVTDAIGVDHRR

SMILES	IC50 (recombinant murine DHODH; numeric values or words)	IC50 (recombinant human DHODH; [2])	IC50 (DHODH)	IC50 (recombinant human DHODH; [3])	also measured
O=C(O)C1=C(C(=O)Nc2ccc(OCc3ccccc3)cc2)CCC1 [Compound 01, 2-(4-Benzyloxy-phenylcarbamoyl)-cyclopent-l-enecarboxylic acid]	8200 nM	350 nM			
O=C(O)C1=C(C(=O)Nc2ccc(-c3ccccc3)cc2)CCC1 [Compound 02, 2-(Biphenyl-4-ylcarbamoyl)-cyclopent-1-enecarboxylic acid]	4000 nM				IC50 (recombinant human DHODH): 690 nM; reduction of human lymphocyte cell proliferation [1]: 40%
COc1ccc(Nc2ccc(NC(=O)C3=C(C(=O)O)CCC3)cc2)cc1 [Compound 04]		1000 nM			murine IC50-Value (recombinant murine DHODH; numeric values or words): weakly active
O=C(O)C1=C(C(=O)Nc2ccc3c(c2)S(=O)(=O)c2cc(NC(=O)C4=C(C(=O)O)CCC4)ccc2C3)CCC1 [Compound 05]		1100 nM			murine IC50-Value (recombinant murine DHODH; numeric values or words): weakley active
O=C(O)C1=C(C(=O)Nc2ccc(C(F)(F)F)cc2)CCC1 [Compound 08]	930 nM	1600 nM			
O=C(O)C1=C(C(=O)Nc2cccc(C(F)(F)F)c2)CCC1 [Compound 09]	55000 nM	6800 nM			
CCOc1cccc(-c2cc(F)c(NC(=O)C3=C(C(=O)O)CCC3)c(F)c2)c1 [Compound 63]			< 800 nM	< 800 nM	
O=C(O)C1=C(C(=O)Nc2ccc(OCc3ccccc3C(F)(F)F)c(Cl)c2)CCC1 [Compound 68]			> 1500 nM	< 800 nM	
COc1ccccc1-c1ccc(OC(=O)C2=C(C(=O)O)CCC2)c(F)c1 [Compound 76]			< 800 nM	< 800 nM	IC50 (recombinant murine DHODH; class symbols (in nM)): 800 to 1500 nM
